Three compounds from patent publication US8609590B2, “Synergistic combination of flumetsulam with thiabendazole” (Dow Global Technologies LLC, priority 2010, dated 2013) can be followed below.

As a reminder, the % inhibition is how much of the control response was suppressed.

Common to all, as to type: cell-based
The test system of experiment [1] is Cp + To + Ta + Cs + Ck + Nc. Briefly: Algal efficacy testing, modified ASTM 5589, paint film (Diclosulam study). To be noted: for % inhibition: at the total conc given for the same sample; for Total conc: end-point concentration in paint used for SI. As for the experimental part: (§1) Sample preparation: A single or blend of biocides was post added into white acrylic latex paint free of biocides to give a maximum total active ingredient/s concentration tested. This paint was then diluted with a biocide free acrylic latex paint to give targeted concentrations for the testing. Depending on the type of biocide blends tested, the total biocides concentrations varies from 200 to 5000 ppm. After biocides addition or dilution, each sample was hand mixed for at least a minute until uniformity is achieved. Each of the paint samples as well as a control sample (containing no biocide) were used to prepare films on black plastic-vinyl chloride/acetate copolymer panels (LENETA, Mahwah, N.J.) using a 3 mil (0.0762 mm) bird bar applicator. The panels were thoroughly dried for at least 2 days avoiding direct exposure to sunlight. Square discs (0.5 inch; 1.27 cm^2) were cut out from each panel and were used as the substrate for fungal and algal efficacy tests. This sample size allowed for an agar border when the sample disc was placed into the well of the test plate. Each sample was tested in duplicate
(§2) The appropriate media (BOLD'S 3N for Chlorophytes, BG-11 for Cyanobacteria, and PDA for fungi) were used to support microbial growth. The test plates were maintained at room temp (25° C.-26° C.), in a cycled light-dark environment, for four weeks for algae. Plates for fungal challenge tests were maintained at 30 C for four weeks. At the end of the incubation period the samples were scored for percent area covered by visible microbial growth.
(§3) ASTM 5589 is a standard accelerated test method for determining resistance of various coatings (including paints) to algal defacement. To accommodate for high-throughput screening, this method was scaled down from petri plates to 6-well plates. A single coupon was placed with a pair of sterile forceps at the center of the agar plug (on top) with the painted surface facing upwards. Algal inoculums were prepared by mixing equal concentrations (1×10^6 cfu/ml) and equal volumes (depending on number of samples to be inoculated) of like growing organisms.
(§4) In Diclosulam+various IT synergy study, only two pools of mixed algae were prepared; Gloeocapsa sp. and Oscillatoria sp. grown on BG-11 media and Chlorella sp., Chlorella kessleri, Nostoc commune, Trentepohlia aurea, Tretepohlia odorata, and Calotrix parientina grown on Bold media
Each well that contains a tested coupon was inoculated with 400 μl of organism mixture (1×10^6 cfu/ml) making sure that the whole surface (paint film as well as the agar surrounding it) was evenly covered. […] The total area covered was evaluated at the end of each week according to percent area covered in 5% increments.
(§5) The SI is calculated based on F. C. […]

In experiment [2] the test system is Aspergillus niger mixed with Penicillium funiculosum (AnPf). Briefly: Fungal efficacy testing, modified ASTM 5590, paint film (Flumetsulam study). To be noted: for % inhibition: at the total conc given for the same sample; for Total conc: end-point concentration in paint used for SI, four weeks, 30 C. As for the experimental part:
as §1, §2
(§6) ASTM 5590 is a standard accelerated test method for determining resistance of various coatings (including paints) to fungal defacement. To accommodate for high-throughput screening, this method was scaled down from petri plates to 6-well plates. To set up the test, an agar plug was placed at the bottom of each well of the sterile 6-well plate. A single coupon was placed with a pair of sterile forceps at the center of the agar plug (on top) with the painted surface facing upwards. Fungal inoculums were prepared by mixing equal concentrations (1×10^6 cfu/ml) and equal volumes (depending on number of samples to be tested) of like growing organisms. For Flumetsulam+various IT synergy study, three pools of mixed fungi were prepared as the test inoculum. Cladosporium herbarum was mixed with Aureobasidium pullulans; Aspergillus niger was mixed with Penicillium funiculosum and Alternaria alternata was mixed with Trichoderma viride. For Diclosulam+various IT synergy study, all above fungi were mixed as a single pool. Each well was inoculated with 400 μl of organism mixture (1×10^6 cfu/ml) making sure that the whole surface (paint film as well as the agar surrounding it) was evenly covered. The plates were incubated at 30° C. in presence of moisture, for a period of four weeks. The total percent area covered was evaluated and recorded at the end of each week after the 2nd week and recorded in increments of 5%.
(§7) The SI is calculated based on F. C. Kull et.

Experiment [3] deals with Alternaria alternata mixed with Trichoderma viride (AaTv). Described as above. To be noted: for % inhibition: at the total conc given for the same sample; for Total conc: end-point concentration in paint used for SI, four weeks, 30 C. As for the experimental part:
as §1, §2, §6, §7

For experiment [4], the system named is Cladosporium herbarum mixed with Aureobasidium pullulans (ApCh). Described as above. The settings on record: for % inhibition: at the total conc given for the same sample; for Total conc: end-point concentration in paint used for SI, four weeks, 30 C. As for the experimental part:
as §1, §2, §6, §7

The test system of experiment [5] is Trentepohlia aurea, Tretepohlia odorata, and Calotrix parientina (Cp + To + Ta). Briefly: Algal efficacy testing, modified ASTM 5589, paint film (Flumetsulam study). The settings on record: for % inhibition: at the total conc given for the same sample; for Total conc: end-point concentration in paint used for SI, four weeks. As for the experimental part: as §1, §2, §3
(§8) In Flumetsulam+various IT synergy study, three pool of mixed algae were prepared as the test inoculum, Gloeocapsa sp. and Oscillatoria sp. a mix of cyanobacteria grown on BG-11 media; Chlorella sp., Chlorella kessleri, and Nostoc commune are unicellular chlorphytes that were mixed and grown on Bold media; Trentepohlia aurea, Tretepohlia odorata, and Calotrix parientina are filamentous algae that were mixed and grown on Bold media.
(§9) Each well that contains a tested coupon was inoculated with 400 μl of organism mixture (1×10^6 cfu/ml) making sure that the whole surface (paint film as well as the agar surrounding it) was evenly covered. The plates were incubated at room temp (25° C.-26° C.) with cyclic exposure to light (OTT-Lite model # OTL4012P, 40 Watt, 26 KLumen) and dark phases, for a period of four weeks. The total area covered was evaluated at the end of each week according to percent area covered in 5% increments.
as §7

Experiment [6] concerns Chlorella sp., Chlorella kessleri, and Nostoc commune (Cs + Ck + Nc). The experiment is described as above. The settings on record: for % inhibition: at the total conc given for the same sample; for Total conc: end-point concentration in paint used for SI, four weeks. As for the experimental part:
as §1, §2, §3, §8, §9, §7

Experiment [7] relates to Aa + Tv + An + Pf + Ap + Ch. Put plainly: Fungal efficacy testing, modified ASTM 5590, paint film (Diclosulam study, single fungal pool). To be noted: for % inhibition: at the total conc given for the same sample; for Total conc: end-point concentration in paint used for SI. As for the experimental part: as §1, §2
as §6, with “Each well was inoculated with 400 μl of organism mixture (1×10^6 cfu/ml) making sure that the whole surface (paint film as well as the agar surrounding it) was evenly covered. The plates were incubated at 30° C. in presence of moisture, for a period of four weeks.” left out
as §5

Experiment [8] concerns Gloeocapsa sp. and Oscillatoria sp. (Gs + Os). Put plainly: Algal efficacy testing, modified ASTM 5589, paint film. The settings on record: for % inhibition: at the total conc given for the same sample; for Total conc: end-point concentration in paint used for SI. As for the experimental part: as §1, §2, §3, §8, §4, §9, §7

As to `c1ccc2[nH]c(-c3cscn3)nc2c1` [TBZ, thiabendazole], the “% inhibition” value in experiment [1] is on record as 100%; in experiment [2], 100%; in experiment [3], 100%; in experiment [4], 100%; in experiment [5] it was 90%; in experiment [6] it was 100%. The “% inhibition” value was 60% in experiment [7], 85% in experiment [8] (Diclosulam study) and 85% in experiment [8] (Flumetsulam study). Also, the Total conc in experiment [1] amounted to 1250 ppm; in experiment [2], 625 ppm; in experiment [3], 625 ppm; in experiment [4], 625 ppm; in experiment [5], 3750 ppm; in experiment [6], 2500 ppm. In addition, the Total conc in experiment [7] is 625 ppm; in experiment [8] (Diclosulam study), 1250 ppm; in experiment [8] (Flumetsulam study, four weeks) it was 3750 ppm.

Take `CCOc1nc(F)cc2nc(S(=O)(=O)Nc3c(Cl)cccc3Cl)nn12` [Diclosulam, N-(2,6-dichlorophenyl)-5-ethoxy-7-fluoro[1,2,4]triazolo[1,5-c]pyrimidine-2-sulfonamide]: the “% inhibition” value in experiment [1] is recorded as 100%; in experiment [7], 0%; in experiment [8] (Diclosulam study), 90%. Besides, the Total conc in experiment [1] came out at 1750 ppm; in experiment [7], 3500 ppm; in experiment [8] (Diclosulam study), 875 ppm.

As to `Cc1ccn2nc(S(=O)(=O)Nc3c(F)cccc3F)nc2n1` [Flumetsulam, N-(2,6-difluorophenyl)-5-methyl[1,2,4]triazolo[1,5-a]pyrimidine-2-sulfonamide], the “% inhibition” value in experiment [2] stood at 90%; in experiment [3], 0%; in experiment [4] it was 50%; in experiment [5] it was 75%; in experiment [6], 100%; in experiment [8] (Flumetsulam study), 90%. For the same compound, the Total conc in experiment [2] was 1750 ppm; in experiment [3], 3500 ppm; in experiment [4], 3500 ppm; in experiment [5], 1750 ppm; in experiment [6], 2625 ppm; in experiment [8] (Flumetsulam study, four weeks) it was 2625 ppm.
